Data taken from patent US9079974B2, “GH-RH analogs with potent agonistic effects” (The University of Miami, priority 2011, dated 2015).
“Also recorded” adds a separate entry of the source. Square brackets hold non-standard residues; d marks the D form. Peptide text beside a SMILES is read from it. Phe(F5) = N[C@@H](Cc1c(F)c(F)c(F)c(F)c1F)C(=O)O; NMeY = CN[C@@H](Cc1ccc(O)cc1)C(=O)O; Nle = CCCC[C@H](N)C(=O)O; Orn = NCCC[C@H](N)C(=O)O; Abu = CC[C@H](N)C(=O)O; GABA = NCCCC(=O)O

Assays:
GHRH receptor = biological target: T1, GHRH receptor (Homo sapiens, UniProt Q02643); experiment: GHRH receptor binding, 125I-labeled JV-1-42 ligand competition, human pituitary membrane homogenates (Table 7); conditions: for IC50: 125I-labeled JV-1-42, human pituitary membranes
T1 construct: Normal human pituitaries were purchased from the National Hormone and Peptide Program; tissue National Hormone and Peptide Program (A. F. Parlow); host or cells: normal human pituitary, membrane fraction
T1 sequence (Q02643 23-423): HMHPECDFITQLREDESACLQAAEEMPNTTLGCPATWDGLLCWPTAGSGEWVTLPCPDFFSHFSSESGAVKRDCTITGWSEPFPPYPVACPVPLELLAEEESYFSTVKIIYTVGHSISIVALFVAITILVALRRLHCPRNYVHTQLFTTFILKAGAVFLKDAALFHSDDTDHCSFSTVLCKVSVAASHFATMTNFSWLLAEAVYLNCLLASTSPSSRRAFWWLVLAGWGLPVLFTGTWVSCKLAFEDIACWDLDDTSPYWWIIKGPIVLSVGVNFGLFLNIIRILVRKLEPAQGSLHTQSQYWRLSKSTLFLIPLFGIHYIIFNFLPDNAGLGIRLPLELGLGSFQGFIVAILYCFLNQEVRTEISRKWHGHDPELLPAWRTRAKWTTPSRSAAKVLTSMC
Experimental: Preparation of human pituitary membrane fraction and receptor binding of GHRH agonists were performed as previously described, by using a sensitive in vitro ligand competition assay based on binding of ^125I-labeled JV-1-42 to human pituitary membrane homogenates. Normal human pituitaries were purchased from the National Hormone and Peptide Program (A. F. Parlow, Los Angeles, County Harbor-UCLA Medical Center, Torrance, Calif.).

GH release = experiment: In vivo GH release after subcutaneous administration; conditions: rat, s.c.
Experimental: Blood samples are taken from the jugular vein; 5, 15 and 30 minutes or only 15 and 30 minutes after the injection. The blood samples are centrifuged, plasma is removed and the GH level is measured by ELISA. The results are summarized in terms of potency in Table 9.

| SMILES | IC50 (GHRH receptor) [nM] | GH response after subcutaneous administration (in words) (GH release) | Relative affinity (Binding potency) vs JI-38 (GHRH receptor; relative to JI-38 = 1) |
| --- | --- | --- | --- |
| CCCC[C@H](NC(=O)[C@@H](NC(=O)[C@H](CC(=O)O)NC(=O)[C@H](CCC(N)=O)NC(=O)[C@H](CC(C)C)NC(=O)[C@H](CC(C)C)NC(=O)[C@H](CCCN)NC(=O)[C@H](CCCNC(=N)N)NC(=O)[C@H](C)NC(=O)[C@H](CO)NC(=O)[C@H](CC(C)C)NC(=O)[C@H](CCC(N)=O)NC(=O)[C@H](CC)NC(=O)[C@H](CC(C)C)NC(=O)[C@@H](NC(=O)[C@H](CCCN)NC(=O)[C@H](CCCNC(=N)N)NC(=O)[C@H](Cc1ccc(O)cc1)NC(=O)[C@H](CO)NC(=O)[C@H](CC(N)=O)NC(=O)[C@@H](NC(=O)[C@H](Cc1ccccc1)NC(=O)[C@@H](NC(=O)[C@H](C)NC(=O)[C@H](CC(=O)O)NC(=O)[C@@H](C)NC(=O)[C@H](Cc1ccc(O)cc1)NC)[C@@H](C)CC)[C@@H](C)O)C(C)C)[C@@H](C)CC)C(=O)N[C@@H](CO)C(=O)N[C@@H](CCCNC(=N)N)C(=O)NCCCC(N)=O [Peptide P-25501, [N—Me-Tyr^1, D-Ala^2, Orn^12, Abu^15, Orn^21, Nle^27, Gab^30]hGH-RH(1-30)NH2] (H-[NMeY][dA]DAIFTNSYR[Orn]VL[Abu]QLSAR[Orn]LLQDI[Nle]SR[GABA]-NH2) | 1.07 | unusually high responses; also recorded: especially greater growth hormone levels than hGH-RH or JI-38 |  |
| CCCC[C@H](NC(=O)[C@@H](NC(=O)[C@H](CC(=O)O)NC(=O)[C@H](CCC(N)=O)NC(=O)[C@H](CC(C)C)NC(=O)[C@H](CC(C)C)NC(=O)[C@H](CCCN)NC(=O)[C@H](CCCNC(=N)N)NC(=O)[C@H](C)NC(=O)[C@H](CO)NC(=O)[C@H](CC(C)C)NC(=O)[C@H](CCC(N)=O)NC(=O)[C@H](CC)NC(=O)[C@H](CC(C)C)NC(=O)[C@@H](NC(=O)[C@H](CCCN)NC(=O)[C@H](CCCNC(=N)N)NC(=O)[C@H](Cc1ccc(O)cc1)NC(=O)[C@H](CO)NC(=O)[C@H](CC(N)=O)NC(=O)[C@@H](NC(=O)[C@H](Cc1c(F)c(F)c(F)c(F)c1F)NC(=O)[C@@H](NC(=O)[C@H](C)NC(=O)[C@H](CC(=O)O)NC(=O)[C@@H](C)NC(=O)[C@H](Cc1ccc(O)cc1)NC)[C@@H](C)CC)[C@@H](C)O)C(C)C)[C@@H](C)CC)C(=O)N[C@@H](CC(=O)O)C(=O)N[C@@H](CCCNC(=N)N)C(=O)NC [Peptide P-27404, [N—Me-Tyr^1, D-Ala^2, Fpa5^6, Orn^12, Abu^15, Orn^21, Nle^27, Asp^28]hGH-RH(1-29)NH—CH3] (H-[NMeY][dA]DAI[Phe(F5)]TNSYR[Orn]VL[Abu]QLSAR[Orn]LLQDI[Nle]DR-NHMe) | 0.87 | unusually high responses; also recorded: especially greater growth hormone levels than hGH-RH or JI-38 | 5.00 |
| CCCC[C@H](NC(=O)[C@@H](NC(=O)[C@H](CC(=O)O)NC(=O)[C@H](CCC(N)=O)NC(=O)[C@H](CC(C)C)NC(=O)[C@H](CC(C)C)NC(=O)[C@H](CCCN)NC(=O)[C@H](CCCNC(=N)N)NC(=O)[C@H](C)NC(=O)[C@H](CO)NC(=O)[C@H](CC(C)C)NC(=O)[C@H](CCC(N)=O)NC(=O)[C@H](CC)NC(=O)[C@H](CC(C)C)NC(=O)[C@@H](NC(=O)[C@H](CCCN)NC(=O)[C@H](CCCNC(=N)N)NC(=O)[C@H](Cc1ccc(O)cc1)NC(=O)[C@H](CO)NC(=O)[C@H](CC(N)=O)NC(=O)[C@@H](NC(=O)[C@H](Cc1ccccc1)NC(=O)[C@@H](NC(=O)[C@H](C)NC(=O)[C@H](CC(=O)O)NC(=O)[C@@H](C)NC(=O)[C@H](Cc1ccc(O)cc1)NC)[C@@H](C)CC)[C@@H](C)O)C(C)C)[C@@H](C)CC)C(=O)N[C@@H](CC(=O)O)C(=O)N[C@@H](CCCNC(=N)N)C(=O)NC [Peptide P-27409, [N—Me-Tyr^1, D-Ala^2, Orn^12, Abu^15, Orn^21, Nle^27, Asp^28]hGH-RH(1-29)NH—CH3] (H-[NMeY][dA]DAIFTNSYR[Orn]VL[Abu]QLSAR[Orn]LLQDI[Nle]DR-NHMe) | 1.06 | unusually high responses; also recorded: especially greater growth hormone levels than hGH-RH or JI-38 |  |
